Experimental data from US6358885B1, “Substituted phenylheterocyclic herbicides” (Mississippi State University, priority 1992, dated 2002).

Columns and labels:
barley [1] = experiment: Test B preemergence/postemergence greenhouse plant response rating 0 to 10; assay type: in vivo, Hordeum vulgare; conditions: PREEMERGENCE, Rate 50 g/ha; 0 to 10 scale
Summary of the method: (§1)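 Test chemicals were sprayed onto freshly planted seed and, concurrently, onto young plants between the one and four leaf stage. After a twelve- to sixteen-day greenhouse period, each species was visually compared with untreated controls.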

cocklebur = experiment: as above; assay type: in vivo, Xanthium pensylvanicum; conditions: 0 to 10 scale
Summary of the method: as §1

barley [2] = experiment: Test C preemergence/postemergence greenhouse plant response rating 0 to 100; assay type: in vivo, Hordeum vulgare; conditions: for Plant response rating Barley Igri: 62 g/ha, 0 to 100 scale
Summary of the method: (§2)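 Compounds in non-phytotoxic solvent applied preemergence to sandy loam one day after planting, postemergence at the 1–4 leaf stage, or to ~2.5 cm floodwater over silt loam.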

morningglory [3] = experiment: as above; assay type: in vivo, Ipomoea hederacea; conditions: for Plant response rating, Morningglory: 62 g/ha, 0 to 100 scale
Summary of the method: as §2

velvetleaf = experiment: Test B preemergence/postemergence greenhouse plant response rating 0 to 10; assay type: in vivo, Abutilon theophrasti; conditions: 0 to 10 scale
Summary of the method: as §1

bedstraw = experiment: as above; assay type: in vivo, Galium aparine; conditions: 0 to 10 scale
Summary of the method: as §1

chickweed = experiment: Test C preemergence/postemergence greenhouse plant response rating 0 to 100; assay type: in vivo, Stellaria media; conditions: for Plant response rating, Chickweed: 62 g/ha, 0 to 100 scale
Summary of the method: as §2

sorghum = experiment: as above; assay type: in vivo, Sorghum bicolor
Summary of the method: as §2

soybean = experiment: Test B preemergence/postemergence greenhouse plant response rating 0 to 10; assay type: in vivo, Glycine max; conditions: 0 to 10 scale
Summary of the method: as §1

morningglory [4] = experiment: as above; assay type: in vivo, Ipomoea hederacea; conditions: 0 to 10 scale
Summary of the method: as §1

CCN1C(=O)COc2cc(F)c(-c3nn4c(c3Cl)CCCC4)cc21 [Compound 54]
Plant response rating, Barley (barley [1]): 2 | Plant response rating, Cocklebur (cocklebur; POSTEMERGENCE, Rate 10 g/ha): 9 | Plant response rating, Cocklebur (cocklebur; POSTEMERGENCE, Rate 50 g/ha): 10 | Plant response rating, Cocklebur (cocklebur; PREEMERGENCE, Rate 10 g/ha): 0 | Plant response rating, Cocklebur (cocklebur; PREEMERGENCE, Rate 50 g/ha): 0 | Plant response rating Barley Igri (barley [2]; POSTEMERGENCE): 50 | Plant response rating (0 to 100), Barley Igri (barley [2]; POSTEMERGENCE, Rate 1 g/ha): 30 | Plant response rating (0 to 100), Barley Igri (barley [2]; POSTEMERGENCE, Rate 4 g/ha): 40 | Plant response rating Barley Igri (barley [2]; PREEMERGENCE): 10 | Plant response rating (0 to 100), Barley Igri (barley [2]; PREEMERGENCE, Rate 1 g/ha): 0 | Plant response rating (0 to 100), Barley Igri (barley [2]; PREEMERGENCE, Rate 4 g/ha): 0 | Plant response rating (0 to 100), Barley Igri (barley [2]; Rate 16 g/ha, POSTEMERGENCE): 50 | Plant response rating (0 to 100), Barley Igri (barley [2]; Rate 16 g/ha, PREEMERGENCE): 0 | Plant response rating, Morningglory (morningglory [3]; POSTEMERGENCE): 100 | Plant response rating (0 to 100), Morningglory (morningglory [3]; POSTEMERGENCE, Rate 1 g/ha): 60 | Plant response rating (0 to 100), Morningglory (morningglory [3]; POSTEMERGENCE, Rate 4 g/ha): 100 | Plant response rating, Morningglory (morningglory [3]; PREEMERGENCE): 20 | Plant response rating (0 to 100), Morningglory (morningglory [3]; PREEMERGENCE, Rate 1 g/ha): 0 | Plant response rating (0 to 100), Morningglory (morningglory [3]; PREEMERGENCE, Rate 4 g/ha): 0 | Plant response rating (0 to 100), Morningglory (morningglory [3]; Rate 16 g/ha, POSTEMERGENCE): 100 | Plant response rating (0 to 100), Morningglory (morningglory [3]; Rate 16 g/ha, PREEMERGENCE): 0 | Plant response rating, Velvetleaf (velvetleaf; POSTEMERGENCE, Rate 10 g/ha): 8 | Plant response rating, Velvetleaf (velvetleaf; POSTEMERGENCE, Rate 50 g/ha): 9 | Plant response rating, Velvetleaf (velvetleaf; PREEMERGENCE, Rate 50 g/ha): 10 | Plant response rating, Bedstraw (bedstraw; POSTEMERGENCE, Rate 10 g/ha): 9 | Plant response rating, Bedstraw (bedstraw; POSTEMERGENCE, Rate 50 g/ha): 9 | Plant response rating, Bedstraw (bedstraw; PREEMERGENCE, Rate 10 g/ha): 8 | Plant response rating, Bedstraw (bedstraw; PREEMERGENCE, Rate 50 g/ha): 9 | Plant response rating, Chickweed (chickweed; POSTEMERGENCE): 100 | Plant response rating (0 to 100), Chickweed (chickweed; POSTEMERGENCE, Rate 1 g/ha): 60 | Plant response rating (0 to 100), Chickweed (chickweed; POSTEMERGENCE, Rate 4 g/ha): 75 | Plant response rating, Chickweed (chickweed; PREEMERGENCE): 100 | Plant response rating (0 to 100), Chickweed (chickweed; PREEMERGENCE, Rate 1 g/ha): 0 | Plant response rating (0 to 100), Chickweed (chickweed; PREEMERGENCE, Rate 4 g/ha): 0 | Plant response rating (0 to 100), Chickweed (chickweed; Rate 16 g/ha, POSTEMERGENCE): 100 | Plant response rating (0 to 100), Chickweed (chickweed; Rate 16 g/ha, PREEMERGENCE): 20 | Plant response rating, Sorghum (sorghum; POSTEMERGENCE, 62 g/ha, 0 to 100 scale): 60 | Plant response rating (0 to 100), Sorghum (sorghum; POSTEMERGENCE, Rate 1 g/ha): 20 | Plant response rating (0 to 100), Sorghum (sorghum; POSTEMERGENCE, Rate 4 g/ha): 40 | Plant response rating (0 to 100), Sorghum (sorghum; PREEMERGENCE, Rate 1 g/ha): 0 | Plant response rating (0 to 100), Sorghum (sorghum; PREEMERGENCE, Rate 4 g/ha): 0 | Plant response rating (0 to 100), Sorghum (sorghum; Rate 16 g/ha, POSTEMERGENCE): 50 | Plant response rating (0 to 100), Sorghum (sorghum; Rate 16 g/ha, PREEMERGENCE): 0 | Plant response rating, Soybean (soybean; POSTEMERGENCE, Rate 10 g/ha): 8 | Plant response rating, Soybean (soybean; POSTEMERGENCE, Rate 50 g/ha): 9 | Plant response rating, Soybean (soybean; PREEMERGENCE, Rate 50 g/ha): 0 | Plant response rating, Morningglory (morningglory [4]; POSTEMERGENCE, Rate 10 g/ha): 9 | Plant response rating, Morningglory (morningglory [4]; POSTEMERGENCE, Rate 50 g/ha): 9 | Plant response rating, Morningglory (morningglory [4]; PREEMERGENCE, Rate 50 g/ha): 3
